Entries after “also recorded” stand apart in the source; their conditions may differ.
Key:
[1] = test system: c-GMP in slices of thoracic aorta of rats; assay: Cyclic-GMP measurement in aortic rat tissue (radioimmunoassay); assay type: cell-based; conditions: in words; for levels of cGMP as compared with GTN: isolated rat aorta, FIGS. 25, 27, 33
Protocol: GTN (10^−6 M) was added to the chamber and, 1 minute after exposure to the drug, rings (usually 3-5) were taken, wrapped with aluminum foil and immediately frozen in liquid nitrogen for storage. Control sample group was treated with the vehicle solution only. At the time of analysis, rings were thawed, blotted over a dry gauzed and weighted. A known weight of tissue was homogenized in 2 ml ice-cold modified Hank's balanced salt solution containing (in gram/liter) NaCl 8; KCl 0.4; glucose 1; KH2PO4 0.06; Na2HPO4 0.047; Phenol red 0.017 and further containing 25 mM EDTA (disodium salt). The homogenate was centrifuged at 4000 g (force units) for 10 minutes at 2-4° C. and the supernatant was thereafter transferred into fresh pre-cooled test tube containing 1 ml of acetonitrile. The tubes were vortex mixed for a few seconds and subsequently centrifuged at 4000 g for 5 minutes at 2-4° C., to remove the precipitated protein. Each supernatant was transferred into a clean test tube and evaporated to dryness under a stream of nitrogen at 55° C. The dry residue was reconstituted with 10 volumes of Tris-EDTA buffer pH 7.5 (0.05 M Tris containing 4 mM EDTA). Aliquots of 100 μl of the reconstituted solution in duplicate were used for c-GMP measurements using Amersham RIA kit, as is described in Haj-Yehia & Benet [Pharmacology, 1995, 273, 1, pp. 94-100]. Standard curves were plotted with six concentrations (0, 0.5, 1, 2, 4 and 8 pmoles of c-GMP per tube).
The NO-tolerance effect of GTN and NO-donor compounds according to the present invention was measured by following the production of c-GMP in slices of thoracic aorta of rats. Thus, the production of c-GMP was measured as described in the methods section above for the reference NO-donor compound GTN, and for the NO-donors of the present invention Pet-2, Pet-3, Pet-7, Pet-8, Pet-10, Pet-12, Pet-24, Pet-59, Pet-147, Pet-149, Pet-152, Pet-154 and Pet-155.

isolated rat aorta [2] = assay: In vitro vasorelaxation of epinephrine-contracted rat aortic rings (CCRC); assay type: cell-based; conditions: isolated rat aorta pre-treated in vitro with 1 μM epinephrine; for vasorelaxation effect as compared with glyceryltrinitrate: in words
Text: Male Sprague Dawley rats were anaesthetized using intraperitoneal injection of ketamine and xylazine (50 and 10 milligram per kilogram, respectively) and the thoracic aorta, the large upper portion of the descending aorta, starting at the caudal border of the chest bone, was removed thereafter, while carefully removing the paraadventetial tissue surrounding the vessel. Aortae were cut into rings of 4-5 millimeters and mounted onto the tissue path. The path buffer (Krebs-bicrbonate) was constantly gassed with carbogen and maintained at 37° C. The rings were preloaded under 2 g tension and equilibrated for 90 minutes, while refreshing the buffer every 15 minutes. After stabilization, the rings were contracted with epinephrine (1 μM). Cumulative Concentration—Response Curves (CCRC) were measured for the vasorelaxing effect induced by adding various concentrations, ranging from 10^−10 M to 10^−5 M of Pet-2, Pet-3, Pet-7, Pet-8, Pet-12, Pet-24, Pet-43, Pet-59, Pet-147, Pet-152 and Pet-154, and glyceryltrinitrate (GTN), according to the procedure described in Feelich et al., Molecular Pharmacology, 56:243-253 (1999), The vehicle, which was used for this experiment was water:ethanol:propyleneglycol at proportional ratio of 1:1:1.
The vasorelaxing effect of the thiazole-derived NO-donors according to the present invention was measured on slices of thoracic aorta of rats contracted with epinephrine, as described hereinabove.

[3] = test system: cyclic-GMP in isolated aorta of rats pre-treated in vivo; assay: Induction of in vivo nitrate tolerance: cGMP in aorta of rats infused for 16 hours; design: species or system rat; conditions: rats infused 200 μg/hour for 16 hours, aorta then exposed to 1 μM; in words
Protocol: For c-GMP levels and tolerance development, the rat's thoracic aorta was isolated after exposure to the tested compound in vivo, and measured as described above in the in vitro assays.
Male Sprague Dawley rats (220 to 250 grams) were housed under constant temperature and humidity conditions. Light was maintained at a 12/12 light dark cycle. Except for 12 hours before the experiment, when food fasting was initiated, all rats had free access to standard rat pellet diet and tap water. The animals were anesthetized by intraperitoneal injection of ketamine and xylazine combination (50 and 10 milligram per kilogram, respectively). […] The catheters were filled with normal saline solution containing 1000 IU/ml of heparin and plugged with a metal pin. Catheters were externalized to the back of the neck region and secured by a polyester felt disk.
After implantation, the rats were individually housed until they regained their preoperative weight and appeared healthy (3 to 4 days post-operation). At this time point (day 0), an osmotic mini-pump (Alza Corp., Palo Alto, Calif.) delivering constant volume (10 μl/hour) of vehicle or drug was connected to one of the intravenous catheters.
For inducing tolerance to the tested NO-donor according to the present invention, the animals received 200 μg/hour of the tested compound for 16 hours (short-term-induced tolerance). […]

[4] = test system: anesthetized hypertensive Sprague-Dawley male rats; assay: Hypotensive effects: mean arterial pressure after iv bolus in phenylephrine-treated rats; assay type: in vivo, rat; conditions: rats pre-treated with phenylephrine, in words
Protocol: Mean arterial pressure (MAP) was monitored and determined during bolus infusion of Pet-2, Pet-3, Pet-7, Pet-8, Pet-12 and Pet-13. Briefly, polyethylene catheters (PE50) were inserted into the carotid artery and into the jugular vein of anesthetized hypertensive Sprague-Dawley male rats (200-300 grams). A blood pressure recorder was placed within the carotid artery. Phenylephrine (0.1 mg) was then injected and the mean arterial blood pressure (MABP) was monitored continuously until a stable baseline was reached. The hypotensive effects of intravenous (iv) bolus doses (0.1 mg of each tested compound) administered intravenously at the jugular vein in minimal volume of vehicle (0.2 ml per dose) were evaluated. Five minutes were allowed between each dose, during which the maximal decrease in MAP was recorded and a dose-response graph comparing the hypotensive effect of the compounds was constructed.

isolated rat aorta [5] = assay: In vitro induction of tolerance and cross-tolerance: vasorelaxation of pre-exposed rat aortic rings; assay type: cell-based; conditions: in words; for tolerance induction in vitro: rings pre-treated with epinephrine and then with the same compound (0.44 mM) versus control
Protocol: Aortic rings were prepared as described hereinabove, and were exposed to 0.44 mM GTN (vehicle was water:ethanol:propyleneglycol at proportional ratio of 1:1:1) for 1 hour before CCRC construction, to thereby induce tolerance to nitroglycerine. At the end of the tolerance induction period, rings were thrice washed with the path buffer (Krebs-bicrbonate) every 15 minutes for the following hour and then CCRC for vasorelaxation on GTN-induced tolerance rings were constructed for GTN (pretreated versus untreated rings, FIG. 15), in order to verify the ability to induce and measure GTN tolerance induction in vitro Attempted induction of tolerance to the NO-donating compounds of the present invention was performed under the same conditions as for GTN. Thus, in an exemplary experiment, rings were exposed to 0.44 mM solution of Pet-3 in the attempt to induce tolerance for Pet-3. CCRC were then measured for the vasorelaxing effect of Pet-3 on a group of rings which were pre-exposed to Pet-3 as to induce tolerance to Pet-3, and for an untreated control group. The above protocol was repeated with Pet-2, Pet-7, Pet-8, Pet-12, Pet-24, Pet-43, Pet-149 and Pet-152.
Cross-tolerance studies were conducted using the same technique described above for measuring vasorelaxation of aortic rings from rats. Two groups of aortic rings samples were pre-treated with GTN, then one group was measured for vasorelaxation by GTN and the second group for vasorelaxation by Pet-12, an exemplary NO-donor according to the present invention. For the opposite cross-tolerance studies, two groups of aortic rings samples were pre-treated with Pet-12, then one group was measured for vasorelaxation by GTN and the second group for vasorelaxation by Pet-12.

SMILES | levels of cGMP as compared with GTN [1] | vasorelaxation effect as compared with glyceryltrinitrate (isolated rat aorta [2]) | tolerance induction in vitro (isolated rat aorta [5]) | further results
Cc1nc(NC(=O)[C@@H](C)c2ccc(CC(C)C)cc2)sc1CCO[N+](=O)[O-] (stereo in doubt) [Pet-152, 2-(4-Isobutyl-phenyl)-N-[4-methyl-5-(2-nitrooxy-ethyl)-thiazol-2-yl]-propionamide] | increased levels of cGMP | superior vasorelaxation effect |  | 
O=[N+]([O-])OCC(CO[N+](=O)[O-])O[N+](=O)[O-] [GTN, glyceryl trinitrate, reference compound] |  |  | tolerance induced by treatment with GTN | c-GMP level following a repeated treatment ([1]; thoracic aorta of rats): significantly reduced; level of cGMP following a repeated treatment in vivo (tolerance induction) [3]: tolerance inducing effect; also recorded: decreased; hypotensive effect on MAP following successive administrations [4]: attenuation in its effect on MAP
Cc1nc(C)c(CCO[N+](=O)[O-])s1 [Pet-3, 2,4-Dimethyl-5-(2-nitrooxy-ethyl)-thiazole] | increased levels of cGMP | superior vasorelaxation effect | absence of tolerance induction | 
Cc1nc(N(C)C)sc1CCO[N+](=O)[O-] [Pet-7, Dimethyl-[4-methyl-5-(2-nitrooxy-ethyl)-thiazol-2-yl]-amine] | increased levels of cGMP | superior | absence of tolerance induction | vasorelaxation effect, fold higher than glyceryltrinitrate (isolated rat aorta [2]): 10 fold
Cc1nc(-c2ccccc2)sc1CCO[N+](=O)[O-] [Pet-8, 4-Methyl-5-(2-nitrooxy-ethyl)-2-phenyl-thiazole] | increased levels of cGMP | superior vasorelaxation effect |  | 
Cc1nc(N)sc1CCO[N+](=O)[O-] [Pet-10, 4-methyl-5-(2-nitrooxy-ethyl)-thiazole-2-ylamine] | increased levels of cGMP |  |  | 
Cc1nc(-c2cccnc2)sc1CCO[N+](=O)[O-] [Pet-12, 3-[4-Methyl-5-(2-nitrooxy-ethyl)-thiazole-2-yl]-pyridine] |  |  | absence of tolerance induction | level of cGMP following a repeated treatment in vivo (tolerance induction) [3]: absence of tolerance induction; also recorded: lack of tolerance induction; cross-tolerance: vasorelaxation in rings pre-treated with GTN (isolated rat aorta [5]; rat aortic rings pre-treated with epinephrine and then with GTN): absence of tolerance induction effect; also recorded: no effect; cross-tolerance: vasorelaxation in rings pre-treated with Pet-12 (isolated rat aorta [5]; rat aortic rings pre-treated with epinephrine and then with Pet-12): absence of tolerance induction effect; also recorded: does not evoke tolerance to itself not to GTN
CNc1cncc(-c2nc(C)c(CCO[N+](=O)[O-])s2)n1 [Pet-24, Methyl-{6-[4-methyl-5-(2-nitrooxy-ethyl)-thiazol-2-yl]-pyrazin-2-yl}-amine] | increased levels of cGMP |  | absence of tolerance induction | 
Cc1nc(Nc2nc(C)c(CCO[N+](=O)[O-])s2)sc1CCO[N+](=O)[O-] [Pet-43, Bis-[4-methyl-5-(2-nitrooxy-ethyl)-thiazol-2-yl]-amine] |  | superior vasorelaxation effect | absence of tolerance induction | 
Cc1nc(-c2ccc(C(F)(F)F)cc2)sc1CCO[N+](=O)[O-] [Pet-59, 4-Methyl-5-(2-nitrooxy-ethyl)-2-(4-trifluoromethyl-phenyl)-thiazole] | increased levels of cGMP | superior vasorelaxation effect |  | 
CCNc1nc(C)c(CCO[N+](=O)[O-])s1 [Pet-147, Ethyl-[4-methyl-5-(2-nitrooxy-ethyl)-thiazol-2-yl]-amine] | increased levels of cGMP |  |  | 
Cc1nc(Nc2cccc3ccccc23)sc1CCO[N+](=O)[O-] [Pet-149, [4-Methyl-5-(2-nitrooxy-ethyl)-thiazol-2-yl]-naphthalen-1-yl-amine] | increased levels of cGMP | superior vasorelaxation effect | absence of tolerance induction | 
Cc1nc(NC(=O)c2cccnc2)sc1CCO[N+](=O)[O-] [Pet-154, N-[4-methyl-5-(2-nitrooxy-ethyl)-thiazol-2-yl]-nicotinamide] | increased levels of cGMP |  |  | 
C=CCNc1nc(C)c(CCO[N+](=O)[O-])s1 [Pet-155, allyl-[4-methyl-5-(2-nitrooxy-ethyl)-thiazol-2-yl]-amine] | increased levels of cGMP | superior vasorelaxation effect |  | 

— patent US7498445B2, “Thiazole-based nitric oxide donors capable of releasing two or more nitric oxide molecules and uses thereof” (priority 2004, dated 2009)
